This note sets out measurements from patent publication US6592885B2, “Method for making infection-resistant fabricated textile articles for biomedical applications” (priority 2001, dated 2003).

In general, MBC refers to the smallest concentration meeting the test's criterion for killing. As usually defined, the MIC is the smallest concentration in the dilution series that meets the test's criterion for growth inhibition.

In one data set the test system is S. aureus. The data set can be described thus: MIC/MBC of native and heated Cipro/Oflox (heat stability). The settings on record: Staphylococcus aureus, n=6; for MBC: broth backplated on agar; for MIC: 10^6 S. aureus/ml, TSB. Format: cell-based. The method, then:
An inoculum of S. aureus was diluted to obtain a bacterial concentration of 10^6 S. aureus/ml. […] V. Mosby, St. Louis, 1986]. Antibiotic concentrations in the assay were […].

A short description of data set [1]: Structural stability to heating conditions, dye bath analysis via HPLC. It counts as physicochemical. As to conditions: heating conditions utilized in pad/heat dyeing; data not shown.
Where [2] appears, read: antibiotic heated to 135° C. for 1 hour (dye bath conditions), 24 hours.

Take `O=C(O)c1cn(C2CC2)c2cc(N3CCNCC3)c(F)cc2c1=O` [Cipro, Ciprofloxacin]: the MBC worked out at 6.5 µM in the data set on S. aureus (setting [2]) and 6.5 µM with S. aureus (native antibiotic, 24 hours).
As to `CC1COc2c(N3CCN(C)CC3)c(F)cc3c(=O)c(C(=O)O)cn1c23` (stereo not shown) [Oflox, Ofloxacin], the MIC in the data set with S. aureus (setting [2]) turned out to be 0.78 µM; in the data set with S. aureus (native antibiotic, turbidity after 24 hours), 0.78 µM. Also, the MBC with S. aureus (setting [2]) was 9.5 µM; in the data set on S. aureus (native antibiotic, 24 hours), 9.5 µM. In addition, the “structural stability upon dye bath analysis via HPLC” value in data set [1] is given as “no structural degradation”.
